Test results taken from patent publication US9867798B2, “Ladostigil therapy for immunomodulation” (priority 2012, dated 2018).

Key:
[1] = tested on: mice with DSS-induced colitis; assay: Acute colitis induced by DSS in mice: body weight, stool, bleeding, DAI, colon length; assay type: in vivo, BALB/c OlaHsd mice
Description: BALB/c OlaHsd male mice aged 8-9 weeks and weighing 25-30 g were purchased from Harlan (Jerusalem, Israel) and housed in standard cages of up to 5 per cage in the pathogen free Animal Facility of the Institute for Drug Research. All experiments were performed in accordance with the Principles of Laboratory Animal Care (NIH publication #85-23, revised 1985) protocols MD-09-12197-4. Acute colitis was induced in mice by administration of 5% DSS solution (M.Wt.=[…], MP Biomedicals, LLC, Solon, Ohio, USA) in water for 8 days. The DSS solution was freshly prepared every day. Mice were provided with food and water or DSS solution ad libitum during the experiment. They were divided into groups of 10 as follows: Vehicle control group: mice drank water and were given water (1 ml/100 gm) once daily by gavage for 8 days; Drug control group: mice drank water and were given ladostigil (10 mg/kg) by gavage once daily for 8 days. DSS untreated group: mice drank 5% DSS for 7 days and water on the 8th day and were given water (1 ml/100 g) once daily by gavage for 8 days. Drug treated group: mice drank 5% DSS followed by water as above and were given ladostigil (5 or 10 mg/kg) by gavage once daily for 8 days. The volume of 5% DSS solution consumed was measured for each group of mice and the average volume/mouse was calculated. On the eighth day, the mice were anesthetized by CO2 and sacrificed by cervical dislocation 2 h after the last dose of ladostigil. Samples of colon and spleen were taken for measurement of cytokines MPO, cytokines and ChE activity.
Body weight, stool consistency and the presence of blood in the stools was recorded daily for each mouse. […] The score ranged between 0-4 for all three parameters and was composed as follows: Weight loss: none=0, 1-5%=1, 5-10%=2, 10-20%=3, >20%=4. Percent of weight loss on days 7 and 8 relative to the first day was calculated for all the groups. […] Bleeding: none=0, hemoccult=2, gross bleeding=4. The maximum DAI score was 4 based on a combination of scores of weight loss (relative to that on the first day of the experiment), stool consistency and bleeding, divided by 3. After sacrifice the length of the colon segment from the cecum to the rectum was measured.

[2] = tested on: LPS-induced TNF-α, IL-1β and IL-6 in spleen; assay: Cytokines in spleen of mice injected with LPS, comparison to rivastigmine (Example 5); assay type: in vivo, Balb/c mice; conditions: for IL-1β in spleen / IL-6 in spleen / TNF-α in spleen: four hours
Description: Male Balb/c mice (aged 8-9 weeks, weighing 25-30 gm) were given ladostigil (10 or 20 mg/kg) or rivastigmine (0.5 or 1 mg/kg) by gavage, or water (1 ml/100 g), followed 15 min later by an intra-peritoneal injection of LPS (10 mg/kg). Control mice were given LPS and water by gavage (1 ml/100 g). For measurement of cytokine levels in the spleen and blood the mice were sacrificed 4 h after drug administration, blood collected in heparinized tubes and centrifuged to obtain plasma and the spleen was rapidly removed and weighed. Plasma and spleen were frozen in liquid nitrogen and stored at −80° C. until use. For measurement of cytokine levels, the tissue was diluted in PBS containing 0.8% NaCl, 0.144% NaHPO4, 0.024% KH2PO4 and protease inhibitor cocktail (Sigma Israel, P8340) and homogenized in an Ultra-TURRAX® homogenizer at a speed of 24,000 rpm, centrifuged at 14000 g for 15 min at 4° C. Cytokines were detected in the supernatant by using ELISA kits for cytokines IL-1β, IL-6, and TNF-α (Biolegend) following the manufacturer's protocol. Each experiment was performed twice with 8 replicate measures in each experiment. Protein concentration in each sample was determined with Bradford reagent (Bio-RAD, 500-0006).

BuChE = BuChE (Homo sapiens, UniProt P06276); assay: Relative potency in inhibiting BuChE and AChE
ChE [3] = assay: Cholinesterase inhibition in plasma and spleen of LPS injected mice (Example 5); assay type: in vivo, Balb-C mice; conditions: 120 min after oral administration; for Inhibition of ChE, plasma / Inhibition of ChE, spleen: LPS injected mice
Description: In experiments on the effect of chronic treatment with ladostigil on ChE activity in mice drinking DSS, the spleen was rapidly removed as described above, together with a colon segment of about 0.5 cm in length taken from the proximal area. Spleen and colon segments were washed in cold phosphate buffered saline (PBS) before they were frozen at −80° C. For assay, the tissue was unfrozen and weighed and PBS was added to each tissue at a ratio of 1 mg tissue to 1 ml. Tissues were homogenized at a speed of 24,000 rpm in cold phosphate buffer pH 7 containing 0.1% Triton and centrifuged at 14000 rpm. Aliquots of plasma and the supernatant from the spleen and colon were incubated with acetylthiocholine and dinitro benzoic acid in phosphate buffer pH 7 and the rate of development of the yellow color was measured as described by Ellman et al, (1961). Percent inhibition of ChE activity was calculated by comparison with that of control mice given water by gavage. Protein concentration was determined by means of by Pierce BCA Protein Assay Kit (Thermo Scientific, USA) according to the manufacturer's instructions. It is noted, that ChE activity in the colon and spleen of mice is attributed mainly to that of AChE while that in mouse plasma is mainly attributable to BuChE.
For the LPS experiment involving a single administration, ladostigil (10 or 20 mg/kg) in a volume of 1 ml/100 g or water (1 ml/100 g) were given by gavage to groups of 6-8 Balb-C male mice weighing 24-30 g and LPS as described above. […] Blood was taken into heparinized tubes and centrifuged at 14000 rpm at room temperature for 4 min to provide plasma and the spleen was rapidly removed, weighed, frozen in liquid nitrogen and stored at −80° C. until assayed. It is noted, that ChE inhibition in mouse plasma is mainly attributed to BuChE activity, and in mouse spleen—mainly to AChE activity.
Percent inhibition of ChE activity was calculated by comparison with that of control mice given water by gavage as described in Example 1 above.

ChE [4] = assay: ChE inhibition in heart or brain of treated rats; assay type: in vivo
[5] = ladostigil 10 mg/kg + LPS 10 mg/kg
[6] = ladostigil 20 mg/kg + LPS 10 mg/kg

BuChE, sequence (P06276 29-602): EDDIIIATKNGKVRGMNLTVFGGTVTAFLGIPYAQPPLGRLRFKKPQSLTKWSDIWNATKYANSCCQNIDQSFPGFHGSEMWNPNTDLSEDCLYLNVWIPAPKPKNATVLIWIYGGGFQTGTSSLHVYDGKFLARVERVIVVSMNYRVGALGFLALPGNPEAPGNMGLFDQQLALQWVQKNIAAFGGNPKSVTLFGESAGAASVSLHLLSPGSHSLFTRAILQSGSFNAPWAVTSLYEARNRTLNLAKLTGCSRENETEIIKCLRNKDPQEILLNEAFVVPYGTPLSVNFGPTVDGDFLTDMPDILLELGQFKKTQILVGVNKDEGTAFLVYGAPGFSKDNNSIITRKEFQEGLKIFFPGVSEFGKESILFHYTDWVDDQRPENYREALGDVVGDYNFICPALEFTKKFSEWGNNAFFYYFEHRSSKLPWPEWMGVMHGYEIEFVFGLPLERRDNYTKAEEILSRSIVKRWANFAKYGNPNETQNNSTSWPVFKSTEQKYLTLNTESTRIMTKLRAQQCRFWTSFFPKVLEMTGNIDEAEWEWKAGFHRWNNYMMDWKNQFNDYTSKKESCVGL

C#CCN[C@@H]1CCc2ccc(OC(=O)N(C)CC)cc21 [Ladostigil, R(+)-6-(N-methyl, N-ethyl-carbamoyloxy)-N′-propargyl-1-aminoindan]
Decrease in colon length and signs of hyperemia and inflammation ([1]; 5% DSS, 5 and 10 mg/kg, untreated decrease >30%): significantly less
Reduction of DSS-induced weight loss ([1]; 5% DSS, both doses (5 and 10 mg/kg), untreated loss 15%): ~50%
Diarrhea ([1]; 5% DSS, day 7, both doses (5 and 10 mg/kg)): significantly decreased
Bleeding ([1]; 5% DSS, day 8, 5 mg/kg): significantly decreased
Disease activity index (DAI) ([1]; 5% DSS, days 7 and 8, drug treated groups vs DSS-water, p<0.01): significantly different from that of the group drinking DSS given water
Body weight increase during 8 days ([1]; mice receiving 5 or 10 mg/kg by gavage, no DSS): 2-3%
Reduction of IL-1β levels in spleen ([2]; ladostigil 10 mg/kg + LPS): 31.1±4.3%
Reduction of IL-6 levels in spleen ([2]; ladostigil 10 mg/kg + LPS): 50.0±7.2%
Reduction of TNF-α levels in spleen ([2]; ladostigil 10 mg/kg + LPS): 49.7±7.6%
IL-1β in spleen [2, 5]: 401 ± 40 pg/mg
IL-6 in spleen [2, 5]: 351 ± 50 pg/mg
TNF-α in spleen [2, 5]: 9.6 ± 1.5 pg/mg
Effect on TNF-α or IL-1β levels in spleen ([2]; ladostigil 20 mg/kg + LPS): had no effect
Reduction of IL-6 levels in spleen ([2]; ladostigil 20 mg/kg + LPS): 42.7±8.3%
IL-1β in spleen [2, 6]: 591 ± 17 pg/mg
IL-6 in spleen [2, 6]: 454 ± 59 pg/mg
TNF-α in spleen [2, 6]: 17.1 ± 1.9 pg/mg
Potency in inhibiting BuChE relative to AChE (BuChE): at least ten times more potent in inhibiting BuChE than in inhibiting AChE
Inhibition of ChE activity in plasma or spleen (ChE [3]; ladostigil 10 mg/kg): did not significantly inhibit ChE activity
Inhibition of ChE, plasma (ChE [3]; ladostigil 10 mg/kg): 7.8 ± 2.4%
Inhibition of ChE, spleen (ChE [3]; ladostigil 10 mg/kg): 15.1 ± 3.6%
Inhibition of ChE, plasma (ChE [3]; ladostigil 20 mg/kg): 27.4±5.9%
Inhibition of ChE, spleen (ChE [3]; ladostigil 20 mg/kg): 28.1 ± 1.9 %
ChE inhibition in the heart or brain (ChE [4]; 1 mg/kg/day): No significant ChE inhibition
ChE activity inhibited (ChE [4]; 8.5 mg/kg/day): 30%
